This note sets out measurements from patent US20240190874A1, “SMALL MOLECULE DEGRADERS OF ANDROGEN RECEPTOR” (THE REGENTS OF THE UNIVERSITY OF MICHIGAN, priority 2021, published 2024).

Like-named read-outs stand apart in the source and are kept apart here.

What all share (format): cell-based
Test [1] has as its target T1, AR (Homo sapiens, UniProt P10275).
T1 construct: Degradation of AR; Cellular potency; host or cells: VCaP cells
T1 sequence (P10275 1-920): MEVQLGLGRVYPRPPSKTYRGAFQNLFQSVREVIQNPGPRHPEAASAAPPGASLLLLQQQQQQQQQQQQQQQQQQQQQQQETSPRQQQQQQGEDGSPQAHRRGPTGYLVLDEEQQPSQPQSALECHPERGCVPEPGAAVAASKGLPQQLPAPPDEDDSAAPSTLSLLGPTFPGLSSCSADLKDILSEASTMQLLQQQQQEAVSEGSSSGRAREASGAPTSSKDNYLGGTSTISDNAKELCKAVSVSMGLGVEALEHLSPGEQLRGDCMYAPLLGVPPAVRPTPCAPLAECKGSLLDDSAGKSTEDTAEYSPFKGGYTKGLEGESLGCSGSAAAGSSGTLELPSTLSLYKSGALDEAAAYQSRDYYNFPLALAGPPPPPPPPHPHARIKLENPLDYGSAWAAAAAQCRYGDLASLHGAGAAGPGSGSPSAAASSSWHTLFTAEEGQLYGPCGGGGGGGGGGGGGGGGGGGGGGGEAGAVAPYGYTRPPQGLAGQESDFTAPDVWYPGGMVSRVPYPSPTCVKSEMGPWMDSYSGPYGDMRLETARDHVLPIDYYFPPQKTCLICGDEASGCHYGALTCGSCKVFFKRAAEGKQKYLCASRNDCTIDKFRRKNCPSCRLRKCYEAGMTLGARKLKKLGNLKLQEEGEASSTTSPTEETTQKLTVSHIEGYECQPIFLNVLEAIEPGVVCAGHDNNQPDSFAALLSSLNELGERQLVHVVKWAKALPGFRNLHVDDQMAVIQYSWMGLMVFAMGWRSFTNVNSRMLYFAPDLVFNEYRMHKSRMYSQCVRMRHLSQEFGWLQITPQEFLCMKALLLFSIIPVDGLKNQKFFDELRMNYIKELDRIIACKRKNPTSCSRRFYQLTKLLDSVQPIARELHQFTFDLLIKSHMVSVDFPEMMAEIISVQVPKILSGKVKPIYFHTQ
As to the kind of experiment: Degradation of AR in VCaP cells. The following applies: VCaP cells; for Dmax: VCaP. How it is done:
(§1) Biological Assays. LNCaP and VCaP cells used were purchased from American Type Culture Collection (ATCC). LNCaP were grown in RPMI 1640 (Invitrogen) and VCaP cells were grown in DMEM with Glutamax (Invitrogen). All of the cells were supplemented with 10% fetal bovine serum (Invitrogen) at 37° C. in a humidified 5% CO2 incubator.

Test [2] has as its system VCaP cells. Briefly: Cellular potency (IC50) in VCaP cells. The method, then:
as §1

The test system of test [3] is LNCaP cells. Briefly: Cellular potency (IC50) in LNCaP cells. The method, then:
as §1

In test [1], `C[C@H]1CC2(CCN(c3ccc(CN4CCN(C5CCN(c6ccc7c(c6)C(=O)N(C6CCC(=O)NC6=O)C7=O)CC5)CC4)c(F)c3)CC2)CN1c1ccc(C#N)c(Cl)c1` (stereo partly shown) [compound 10] displayed a DC50 below 0.01 µM and a Dmax above 90%. In test [2], this compound displayed an IC50 below 0.01 µM. This compound came in with an IC50 in test [3] below 0.01 µM.
As for `C=C1CCC(N2C(=O)c3ccc(N4CC(C5CCN(Cc6ccc(N7CCC8(CC7)C[C@H](C)N(c7ccc(C#N)c(Cl)c7)C8)cc6)CC5)C4)cc3C2=O)C(=O)N1` (stereo partly shown) [compound 16], in test [1], the maximal degradation (Dmax) was above 90%. Also, the IC50 is below 0.01 µM in test [2] (Homo sapiens, VCaP) and below 0.01 µM in test [3] (Homo sapiens, LNCaP).
The compound `C=C1CCC(N2C(=O)c3ccc(N4CCC(C5CCN(Cc6ccc(N7CCC8(CC7)C[C@H](C)N(c7ccc(C#N)c(Cl)c7)C8)cc6)CC5)CC4)cc3C2=O)C(=O)N1` (stereo partly shown) [compound 17] showed a Dmax in test [1] of 70 to 90%. In addition, the IC50 was below 0.1 µM in test [2] (Homo sapiens, VCaP) and below 0.1 µM in test [3] (Homo sapiens, LNCaP).
On to `C=C1CCC(N2C(=O)c3ccc(N4CCC(N5CCN(Cc6ccc(N7CCC8(CC7)C[C@H](C)N(c7ccc(C#N)c(Cl)c7)C8)cc6)CC5)CC4)cc3C2=O)C(=O)N1` (stereo partly shown) [compound 18], for which, in test [1], the Dmax is above 90%. In addition, the IC50 is below 0.01 µM in test [2] (Homo sapiens, VCaP) and below 0.01 µM in test [3] (Homo sapiens, LNCaP).
In test [1], `C[C@H]1CC2(CCN(c3ccc(CN4CCC(N5Cc6cc7c(cc6C5)C(=O)N(C5CCC(=O)NC5=O)C7=O)CC4)cc3)CC2)CN1c1ccc(C#N)c(Cl)c1` (stereo partly shown) [compound 19] came in with a DC50 below 0.1 µM and a Dmax of 70 to 90%. This compound also gave an IC50 in test [2] (Homo sapiens, VCaP) below 0.1 µM. Moreover, the IC50 in test [3] (Homo sapiens, LNCaP) was below 0.1 µM.
As to `C[C@H]1CC2(CCN(c3ccc(CN4CCC(CN5Cc6cc7c(cc6C5)C(=O)N(C5CCC(=O)NC5=O)C7=O)CC4)cc3)CC2)CN1c1ccc(C#N)c(Cl)c1` (stereo partly shown) [compound 20], in test [1], the DC50 is below 0.1 µM and the Dmax was 70 to 90%. The IC50 in test [2] (Homo sapiens, VCaP) was below 0.1 µM. In test [3] (Homo sapiens, LNCaP), this compound came in with an IC50 below 0.1 µM.
In test [1], `C[C@H]1CC2(CCN(c3ccc(C4CCN(CC5CN(c6ccc7c(c6)C(=O)N(C6CCC(=O)NC6=O)C7=O)C5)CC4)cc3)CC2)CN1c1ccc(C#N)c(Cl)c1` (stereo partly shown) [compound 21] came in with a DC50 below 0.001 µM and a Dmax above 90%. Further, in test [2] (Homo sapiens, VCaP), the IC50 was below 0.01 µM. Further, the IC50 in test [3] (Homo sapiens, LNCaP) is below 0.01 µM.
In test [1], `C[C@H]1CC2(CCN(c3ccc(C4CCN(C5CN(c6ccc7c(c6)C(=O)N(C6CCC(=O)NC6=O)C7=O)C5)CC4)cc3)CC2)CN1c1ccc(C#N)c(Cl)c1` (stereo partly shown) [compound 22] displayed a 50% degradation concentration (DC50) below 0.1 µM and a Dmax of 70 to 90%. Also, the IC50 in test [2] (Homo sapiens, VCaP) was below 0.1 µM. In test [3] (Homo sapiens, LNCaP), this compound returned an IC50 below 0.1 µM.
The compound `C=C1CCC(N2C(=O)c3ccc(N4CC(N5CCC(Cc6ccc(N7CCC8(CC7)C[C@H](C)N(c7ccc(C#N)c(Cl)c7)C8)cc6)CC5)C4)cc3C2=O)C(=O)N1` (stereo partly shown) [compound 23] yielded a Dmax in test [1] above 90%. Moreover, the 50% inhibitory concentration (IC50) in test [2] (Homo sapiens, VCaP) was below 0.01 µM; in test [3] (Homo sapiens, LNCaP), below 0.01 µM.
Compound `C=C1CCC(N2C(=O)c3ccc(N4CCC(N5CCC(Cc6ccc(N7CCC8(CC7)C[C@H](C)N(c7ccc(C#N)c(Cl)c7)C8)cc6)CC5)CC4)cc3C2=O)C(=O)N1` (stereo partly shown) [compound 24] returned a Dmax in test [1] above 90%. In addition, the IC50 in test [2] (Homo sapiens, VCaP) is below 0.01 µM; in test [3] (Homo sapiens, LNCaP), below 0.01 µM.
In test [1], `C[C@H]1CC2(CCN(c3ccc(CC4CCN(CC5CN(c6ccc7c(c6)C(=O)N(C6CCC(=O)NC6=O)C7=O)C5)CC4)cc3)CC2)CN1c1ccc(C#N)c(Cl)c1` (stereo partly shown) [compound 25] yielded a DC50 below 0.001 µM and a Dmax above 90%. For the same compound, the IC50 in test [2] (Homo sapiens, VCaP) was below 0.01 µM. Besides, the IC50 in test [3] (Homo sapiens, LNCaP) was below 0.01 µM.
Consider `C[C@H]1CC2(CCN(c3ccc(CC4CCN(CC5CCN(c6ccc7c(c6)C(=O)N(C6CCC(=O)NC6=O)C7=O)CC5)CC4)cc3)CC2)CN1c1ccc(C#N)c(Cl)c1` (stereo partly shown) [compound 26], for which, in test [1], the DC50 is below 0.001 µM and the Dmax is above 90%. The compound further showed an IC50 in test [2] (Homo sapiens, VCaP) below 0.01 µM. This compound also showed an IC50 in test [3] (Homo sapiens, LNCaP) below 0.01 µM.
In test [1], `C[C@H]1CC2(CCN(c3ccc(N4CCN(C5CN(c6ccc7c(c6)C(=O)N(C6CCC(=O)NC6=O)C7=O)C5)CC4)cc3)CC2)CN1c1ccc(C#N)c(Cl)c1` (stereo partly shown) [compound 27] registered a DC50 below 0.001 µM and a Dmax above 90%. The compound also registered an IC50 in test [2] (Homo sapiens, VCaP) below 0.01 µM. The compound further came in with an IC50 in test [3] (Homo sapiens, LNCaP) below 0.01 µM.
`C[C@H]1CC2(CCN(c3ccc(N4CCN(CC5CN(c6ccc7c(c6)C(=O)N(C6CCC(=O)NC6=O)C7=O)C5)CC4)cc3)CC2)CN1c1ccc(C#N)c(Cl)c1` (stereo partly drawn) [compound 28, 2-chloro-4-((3S)-8-(4-(4-((1-(2-(2,6-dioxopiperidin-3-yl)-1,3-dioxoisoindolin-5-yl)azetidin-3-yl)methyl)piperazin-1-yl)phenyl)-3-methyl-2,8-diazaspiro[4.5]decan-2-yl)benzonitrile] came in with a Dmax in test [1] above 90%. Moreover, the IC50 was below 0.01 µM in test [2] (Homo sapiens, VCaP) and below 0.01 µM in test [3] (Homo sapiens, LNCaP).
In the case of `C[C@H]1CC2(CCN(c3ccc(N4CCN(C5CCN(c6ccc7c(c6)C(=O)N(C6CCC(=O)NC6=O)C7=O)CC5)CC4)cc3)CC2)CN1c1ccc(C#N)c(Cl)c1` (stereo partly shown) [compound 29], in test [1], the DC50 is below 0.1 µM and the Dmax was above 90%. This compound also returned an IC50 in test [2] (Homo sapiens, VCaP) below 0.1 µM. In test [3] (Homo sapiens, LNCaP), the IC50 is below 0.1 µM.
Consider `C[C@H]1CC2(CCN(c3ccc(N4CCN(CC5CCN(c6ccc7c(c6)C(=O)N(C6CCC(=O)NC6=O)C7=O)CC5)CC4)cc3)CC2)CN1c1ccc(C#N)c(Cl)c1` (stereo partly shown) [compound 30], for which the half-maximal degradation concentration (DC50) in test [1] is below 0.001 µM. In test [1], this compound gave a Dmax above 90%. In addition, the IC50 was below 0.01 µM in test [2] (Homo sapiens, VCaP) and below 0.01 µM in test [3] (Homo sapiens, LNCaP).
In test [1], `C[C@H]1CC2(CCN(c3ccc(N4CCN(CC5CN(c6ccc7c(c6)C(=O)N(C6CCC(=O)NC6=O)C7=O)C5)CC4)cn3)CC2)CN1c1ccc(C#N)c(Cl)c1` (stereo partly shown) [compound 31] showed a DC50 below 0.001 µM. Further, in test [1], the Dmax is above 90%. For the same compound, the IC50 is below 0.01 µM in test [2] (Homo sapiens, VCaP) and below 0.01 µM in test [3] (Homo sapiens, LNCaP).
In turn, `C[C@H]1CC2(CCN(c3ccc(N4CCN(CC5CCN(c6ccc7c(c6)C(=O)N(C6CCC(=O)NC6=O)C7=O)CC5)CC4)cn3)CC2)CN1c1ccc(C#N)c(Cl)c1` (stereo partly shown) [compound 32] yielded a DC50 in test [1] below 0.001 µM. The Dmax in test [1] was above 90%. Besides, the IC50 in test [2] (Homo sapiens, VCaP) was below 0.01 µM; in test [3] (Homo sapiens, LNCaP), below 0.01 µM.
With `C[C@H]1CC2(CCN(c3ccc(N4CCN(C5CN(c6ccc7c(c6)C(=O)N(C6CCC(=O)NC6=O)C7=O)C5)CC4)cn3)CC2)CN1c1ccc(C#N)c(Cl)c1` (stereo partly shown) [compound 33], in test [1], the DC50 was below 0.01 µM and the Dmax lay in the range of 70 to 90%. Also, the IC50 in test [2] (Homo sapiens, VCaP) was below 0.01 µM. In addition, the IC50 in test [3] (Homo sapiens, LNCaP) is below 0.01 µM.
Regarding `C[C@H]1CC2(CCN(c3ccc(N4CCN(CC5CN(c6ccc7c(c6)C(=O)N(C6CCC(=O)NC6=O)C7=O)C5)CC4)nc3)CC2)CN1c1ccc(C#N)c(Cl)c1` (stereo partly shown) [compound 34], the DC50 in test [1] is below 0.001 µM. In addition, the Dmax in test [1] is above 90%. In addition, the IC50 in test [2] (Homo sapiens, VCaP) was below 0.01 µM; in test [3] (Homo sapiens, LNCaP), below 0.01 µM.
On to `C[C@H]1CC2(CCN(c3ccc(N4CCN(CC5CCN(c6ccc7c(c6)C(=O)N(C6CCC(=O)NC6=O)C7=O)CC5)CC4)nc3)CC2)CN1c1ccc(C#N)c(Cl)c1` (stereo partly shown) [compound 35], for which, in test [1], the DC50 was below 0.001 µM and the Dmax was above 90%. In test [2] (Homo sapiens, VCaP), this compound yielded an IC50 below 0.01 µM. In test [3] (Homo sapiens, LNCaP), this compound had an IC50 below 0.01 µM.
In test [1], `C[C@H]1CC2(CCN(c3ccc(N4CCN(C5CN(c6ccc7c(c6)C(=O)N(C6CCC(=O)NC6=O)C7=O)C5)CC4)nc3)CC2)CN1c1ccc(C#N)c(Cl)c1` (stereo partly shown) [compound 36] displayed a 50% degradation concentration (DC50) below 0.001 µM and a Dmax above 90%. Besides, in test [2] (Homo sapiens, VCaP), the 50% inhibitory concentration (IC50) is below 0.01 µM. Further, in test [3] (Homo sapiens, LNCaP), the half-maximal inhibitory concentration (IC50) is below 0.01 µM.

A word on the DC50: it is the midpoint of the concentration-degradation curve. Usually Dmax stands for the largest share of the target that was removed. A higher Dmax goes with deep degradation. As usually defined, the IC50 is the point on the concentration scale where inhibition reaches its midpoint.
